Reference: patent publication US11608334B2, “Pyrrolo-aromatic heterocyclic compound, preparation method therefor, and medical use thereof” (The National Institutes of Pharmaceutical R&D Co., Ltd., priority 2017, dated 2023)

Assays:
[1] = target: T1, BTK (Homo sapiens, UniProt Q06187); test: Determination of BTK inhibitory activity (ADP-Glo kinase assay); assay type: biochemical; details: BTK (Promega), Poly E4Y substrate, 25° C., 60 minutes
T1 construct: purchased Promega
Method: To a 384 reaction plate (6008280, PerkinElmer), 2 μL/well of BTK solution (purchased from Promega) was added. The test compound (10 mM stock solution) was diluted 100-fold to 100 μM with 100% DMSO. In a 384 dilution plate (3657, coming), a 1:3 dilution was made, and the gradient concentrations of the test compounds were 100, 33.3, 11.1, 3.7, 1.24, 0.41, 0.14, 0.046, 0.015, 0.0051, 0 μM. 2 μL of the test compound was transferred to a 384-dilution plate containing 38 μL of 1× Kinase Reaction Buffer, homogenized and centrifuged at 1000 rpm. 1 μL of the test compound was transferred to the 384 reaction plate, centrifuged at 1000 rpm, and incubated at 25° C. for 15 minutes. 2 μL of substrate mixture (ATP: 10 mM, 4 μL; Poly E4Y 1:1 mg/mL, 20 μL; Kinase Reaction Buffer: 776 μL) was transferred to a 384 reaction plate, centrifuged at 1000 rpm and incubated at 25° C. for 60 minutes. The final concentration of the test compound in the reaction system was the gradients of 1000, 333.3, 111.1, 37.03, 12.35, 4.14, 1.37, 0.46, 0.15, 0.051, 0 nM. The final concentration of DMSO was 1%. 5 μL of ADP-Glo solution (purchased from Promega) was transferred to a 384 reaction plate, centrifuged at 1000 rpm and incubated at 25° C. for 40 minutes. 10 μL of Detection solution was transferred to a 384 reaction plate, centrifuged at 1000 rpm and incubated for 40 minutes at 25° C. The RLU (Relative luminescence unit) signal was read using an Envision multi-function reader (Perkin Elmer), and the signal intensity was used to characterize the activity of BTK kinase. The IC50 values was calculated and analyzed by Microsoft Excel software.

[2] = tested on: Type 2 Collagen Induced DBA/1J Mouse Arthritis Model (CIA); test: Type 2 collagen induced DBA/1J mouse arthritis model (CIA), arthritis index score; assay type: in vivo; details: CIA DBA/1 mice, 30 mg/kg orally once a day, n = 9
Method: The CIA model is an animal model widely used to study the drug activity on human rheumatoid arthritis.
Animals: DBA/1 mice, sex: male, number: 30, weight: 14-16 g, age of weeks: 6-7 weeks old, purchased from Beijing Weitong Lihua Experimental Animal Technology Co., Ltd., SPF, animal production license number: SCXK (Beijing) 2012-0001, the issue unit: Beijing Science and Technology Commission.
Group: model control group, administration (30 mg/Kg) group (compound of example 33).
An appropriate amount of Bovine Type II Collage (purchased from Chondrex. Inc.) was dissolved in 0.05 M acetic acid (4 mg collagen/mL) and stored in a refrigerator at 4° C. overnight. Then it was fully emulsified with an equal amount of complete Freund's adjuvant in an ice bath environment. Each DBA/1J mouse was injected subcutaneously at 1.5 cm from the base of the tail with 0.1 mL emulsion (200 μg of collagen). Clinical symptom observation and arthritis score were started 4 weeks after modeling. The scores of all symptomatic animals were ranked and randomly grouped into two groups, which were model control group (the same amount of 0.5% CMC was administered orally) and administration group (30 mg/kg of the compound of Example 33 was administered orally) respectively. The administration was continued for 21 days withonce a day. Arthritis scores and body weight changes were measured every 3 days after administration.
Arthritis Index Score: The arthritis index score is based on Wood's arthritis score as follows: • 0 points: normal • 1 points: redness involving 1 knuckle • 2 points: redness involving more than 2 knuckles or mild redness involving entire foot • 3 points: the feet are red and swollen • 4 points: the feet are severely red and swollen, and the joints are stiff and inelastic.
The damage of each of the 4 paws was graded as 0-4 points and the total score of the limbs was calculated. The scores at different times were compared (arthritis index).

T1 sequence (Q06187 whole entry): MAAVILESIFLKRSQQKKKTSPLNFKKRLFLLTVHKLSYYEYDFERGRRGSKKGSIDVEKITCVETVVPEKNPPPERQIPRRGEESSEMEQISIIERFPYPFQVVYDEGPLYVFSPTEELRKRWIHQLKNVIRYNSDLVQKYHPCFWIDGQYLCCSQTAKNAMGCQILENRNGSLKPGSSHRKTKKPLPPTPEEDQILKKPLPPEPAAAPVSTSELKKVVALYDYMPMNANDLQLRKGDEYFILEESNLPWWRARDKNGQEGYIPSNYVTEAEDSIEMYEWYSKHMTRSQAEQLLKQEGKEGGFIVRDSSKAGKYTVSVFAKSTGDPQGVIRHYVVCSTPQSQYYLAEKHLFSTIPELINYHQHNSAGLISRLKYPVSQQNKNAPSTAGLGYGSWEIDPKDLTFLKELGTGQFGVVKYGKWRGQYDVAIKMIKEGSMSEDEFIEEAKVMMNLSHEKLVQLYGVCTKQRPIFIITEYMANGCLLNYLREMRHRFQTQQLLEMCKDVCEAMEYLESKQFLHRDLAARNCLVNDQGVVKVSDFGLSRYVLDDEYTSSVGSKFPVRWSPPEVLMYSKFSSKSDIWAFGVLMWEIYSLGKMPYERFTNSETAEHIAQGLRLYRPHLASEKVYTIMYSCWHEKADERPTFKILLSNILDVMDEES

Work on `C=CC(=O)Nc1cccc(Oc2c(Cl)cnc3[nH]c(-c4ccc(N5CCN(C)CC5)cc4)cc23)c1` [Example 1, N-(3-((5-chloro-2-(4-(4-methylpiperazin-1yl)phenyl)-1H-pyrrolo[2,3-b]pyridin-4-yl)oxy)phenyl)acrylamide] yielded an IC50 [1] of under 100 nM.
`C=CC(=O)Nc1cccc(Oc2c(F)cnc3[nH]c(-c4ccc(N5CCN(C)CC5)cc4)cc23)c1` [Example 2, N-(3-((5-fluoro-2-(4-(4-methylpiperazin-1yl)phenyl)-1H-pyrrolo[2,3-b]pyridin-4-yl)oxy)phenyl) acrylamide] gave an IC50 [1] of under 100 nM.
`C=CC(=O)Nc1cccc(Nc2ncnc3[nH]c(-c4ccc(N5CCN(C)CC5)cc4)cc23)c1` [Example 5, N-(3-((6-(4-(4-methylpiperazin-1-yl)phenyl)-7H-pyrrolo[2,3-d]pyrimidin-4-yl)amino)phenyl)acrylamide] gave an IC50 [1] of under 100 nM.
For `CC#CC(=O)Nc1cccc(Oc2ncnc3[nH]c(-c4ccc(N5CCN(C)CC5)cc4)cc23)c1` [Example 6, N-(3-((6-(4-(4-methylpiperazin-1-yl)phenyl)-7H-pyrrolo[2,3-d]pyrimidin-4-yl)oxy)phenyl) but-2-ynylamide], the IC50 [1] was under 100 nM.
`C=CC(=O)Nc1cccc(Oc2ncnc3[nH]c(-c4ccc(N5CCN(C)CC5)cc4)cc23)c1` [Example 12, N-(3-((6-(4-(4-methylpiperazin-1-yl)phenyl)-7H-pyrrolo[2,3-d]pyrimidin-4-yl)oxy)phenyl) acrylamide] was tested, and the IC50 [1] was under 100 nM.
With `C=CC(=O)N(C)c1cccc(Oc2ncnc3[nH]c(-c4ccc(N5CCOCC5)cc4)cc23)c1` [Example 16, N-methyl-N-(3-((6-(4-morpholinylphenyl)-7H-pyrrolo[2,3-d]pyrimidin-4-yl)oxy)phenyl)acrylamide] the IC50 [1] was under 100 nM.
`C=CC(=O)Nc1cc(Oc2ncnc3[nH]c(-c4ccc(N5CCN(C)CC5)cc4)cc23)ccc1F` [Example 18, N-(2-fluoro-5-((6-(4-(4-methylpiperazin-1-yl)phenyl)-7H-pyrrolo[2,3-d]pyrimidin-4-yl)oxy)phenyl)acrylamide] gave an IC50 [1] of under 100 nM.
For `C=CC(=O)Nc1cc(Oc2ncnc3[nH]c(-c4ccc(N5CCOCC5)cc4)cc23)ccc1F` [Example 19, N-(2-Fluoro-5-((6-(4-morpholinylphenyl)-7H-pyrrolo[2,3-d]pyrimidin-4-yl)oxy)phenyl)acrylamide], the IC50 [1] was under 100 nM.
Compound `C=CC(=O)Nc1cccc(Oc2ncnc3[nH]c(-c4ccc(N5CCN(C)CC5)c(F)c4)cc23)c1` [Example 25, N-(3-((6-(3-fluoro-4-(4-methylpiperazin-1-yl)phenyl)-7H-pyrrolo[2,3-d]pyrimidin-4-yl)oxy)phenyl)acrylamide] has an IC50 [1] of under 100 nM.
`C=CC(=O)Nc1cccc(Nc2ncnc3[nH]c(-c4ccc(N5CCOCC5)cc4)cc23)c1` [Example 32, N-(3-((6-(4-morpholinylphenyl)-7H-pyrrolo[2,3-d]pyrimidin-4-yl)amino)phenyl) acrylamide] was tested, and the IC50 [1] was under 100 nM.
Work on `C=CC(=O)Nc1cccc(Oc2ncnc3[nH]c(-c4ccc(N5CCOCC5)cc4)cc23)c1` [Example 33, N-(3-((6-(4-morpholinylphenyl)-7H-pyrrolo[2,3-d]pyrimidin-4-yl)oxy)phenyl)acrylamide] yielded an Arthritis score ([2]; 3 day after administration) of 5.00 ± 3.16, an Arthritis score ([2]; 7 day after administration) of 5.78 ± 2.91 and an Arthritis score ([2]; 10 day after administration) of 6.13 ± 3.23. For the same compound, the Arthritis score ([2]; 14 day after administration, *P < 0.05 vs model control) was 5.13 ± 3.60*, the Arthritis score ([2]; 17 day after administration, *P < 0.05 vs model control) was 4.63 ± 3.11* and the Arthritis score ([2]; 21 day after administration, **P < 0.01 vs model control) was 3.63 ± 1.92**. It also gave an Arthritis score ([2]; Before administration) of 4.11 ± 3.26.
Work on `C=CC(=O)Nc1cccc(Oc2ncnc3[nH]c(-c4ccc(CN5CCS(=O)(=O)CC5)cc4)cc23)c1` [Example 44, N-(3-((6-(4-((1,1-dioxothiomorpholinyl)methyl)phenyl)-7H-pyrrolo[2,3-d]pyrimidin-4-yl)oxy)phenyl)acrylamide] yielded an IC50 [1] of under 100 nM.
`C=CC(=O)Nc1cccc(Oc2ncnc3[nH]c(-c4ccc(CN5CCOCC5)cc4)cc23)c1` [Example 46, N-(3-((6-(4-(morpholinomethyl)phenyl)-7H-pyrrolo[2,3-d]pyrimidin-4-yl)oxy)phenyl)acrylamide] showed an IC50 [1] of under 100 nM.
`C=CC(=O)Nc1cccc(Oc2ncnc3[nH]c(-c4ccc(CN5CCC(F)(F)CC5)cc4)cc23)c1` [Example 47, N-(3-((6-(4-((4,4-Difluoropiperidin-1-yl)methyl)phenyl)-7H-pyrrolo[2,3-d]pyrimidin-4-yl)oxy)phenyl)acrylamide] showed an IC50 [1] of under 100 nM.
Compound `C=CC(=O)Nc1cccc(Oc2ncnc3[nH]c(-c4ccc(NC5CCN(C)CC5)cc4)cc23)c1` [Example 53, N-(3-((6-(4-((1-methylpiperidin-4-yl)amino)phenyl)-7H-pyrrolo[2,3-d]pyrimidin-4-yl)oxy)phenyl)acrylamide] has an IC50 [1] of under 100 nM.
`CC#CC(=O)Nc1cccc(Oc2ncnc3[nH]c(-c4ccc(CN5CCC(F)(F)CC5)cc4)cc23)c1` [Example 63, N-(3-((6-(4-((4,4-difluoropiperidin-1-yl)methyl)phenyl)-7H-pyrrolo[2,3-d]pyrimidin-4-yl)oxy)phenyl)but-2-ynylamide] was tested, and the IC50 [1] was under 100 nM.
Work on `CC#CC(=O)Nc1cccc(Oc2ncnc3[nH]c(-c4ccc(CN5CCCCC5)cc4)cc23)c1` [Example 64] yielded an IC50 [1] of under 100 nM.
